Results from ChEMBL document CHEMBL1201862, “PubChem BioAssay data set” (2004).
Active and inactive are the calls of the source.

How the values were obtained:
[1] = THP-1 cell cytotoxicity, dose response, cytotoxicity control for non-replicating M. tuberculosis project (AID 489025); assay type: functional
[2] = HepG2 cell cytotoxicity, dose response, cytotoxicity control for non-replicating M. tuberculosis project (AID 489018); assay type: functional; details: Mycobacterium tuberculosis
[3] = target: T1, Ubiquitin-conjugating enzyme E2 N (Homo sapiens, UniProt P61088); assay type: functional
T1 sequence (P61088 whole entry): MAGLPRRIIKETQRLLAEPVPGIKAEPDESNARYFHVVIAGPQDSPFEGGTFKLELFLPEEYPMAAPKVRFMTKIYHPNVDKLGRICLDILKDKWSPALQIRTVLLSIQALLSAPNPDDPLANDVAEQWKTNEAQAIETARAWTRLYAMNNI

[4] = Vero E6 cell cytotoxicity, dose response, cytotoxicity control for non-replicating M. tuberculosis project, secondary assay (AID 492998); assay type: functional, VeroE6; details: Vero C1008
cells = assay type: functional
Insulin-degrading enzyme [5] = target: T2, Insulin-degrading enzyme (Homo sapiens, UniProt P14735); test: activators of recombinant IDE enzyme, dose response, counter-screen for IDE activator project, biochemical, fluorescence polarization (AID 588681)
T2 sequence (P14735 whole entry): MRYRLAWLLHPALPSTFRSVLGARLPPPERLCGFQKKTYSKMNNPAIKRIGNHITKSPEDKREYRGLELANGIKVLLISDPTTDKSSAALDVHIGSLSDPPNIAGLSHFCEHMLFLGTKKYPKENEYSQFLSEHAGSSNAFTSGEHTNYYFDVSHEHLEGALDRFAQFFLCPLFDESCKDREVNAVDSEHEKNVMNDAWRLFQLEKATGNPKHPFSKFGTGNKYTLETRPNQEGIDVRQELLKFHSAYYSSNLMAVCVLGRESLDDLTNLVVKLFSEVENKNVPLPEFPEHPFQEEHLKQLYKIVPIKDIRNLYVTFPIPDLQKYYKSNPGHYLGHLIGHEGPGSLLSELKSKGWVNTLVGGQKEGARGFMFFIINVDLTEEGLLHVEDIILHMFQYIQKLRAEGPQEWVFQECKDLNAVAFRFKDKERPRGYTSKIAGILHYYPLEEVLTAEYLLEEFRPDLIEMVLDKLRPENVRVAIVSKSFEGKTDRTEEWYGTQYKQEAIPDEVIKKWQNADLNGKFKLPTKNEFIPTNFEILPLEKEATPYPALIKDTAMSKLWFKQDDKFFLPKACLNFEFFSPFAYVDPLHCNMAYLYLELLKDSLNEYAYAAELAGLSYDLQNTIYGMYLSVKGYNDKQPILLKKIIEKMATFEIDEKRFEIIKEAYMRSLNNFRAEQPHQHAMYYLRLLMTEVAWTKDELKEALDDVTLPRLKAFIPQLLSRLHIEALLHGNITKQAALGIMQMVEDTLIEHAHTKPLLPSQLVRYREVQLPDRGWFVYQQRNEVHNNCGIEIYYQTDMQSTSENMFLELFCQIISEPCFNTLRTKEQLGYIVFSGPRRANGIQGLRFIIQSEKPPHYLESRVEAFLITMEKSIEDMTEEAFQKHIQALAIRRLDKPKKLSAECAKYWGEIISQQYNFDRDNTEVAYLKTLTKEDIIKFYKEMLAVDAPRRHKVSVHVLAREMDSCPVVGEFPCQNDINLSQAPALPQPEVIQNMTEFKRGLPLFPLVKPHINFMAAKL

Insulin-degrading enzyme [6] = target: T2, Insulin-degrading enzyme; test: activators of endogenous IDE in HEK cells, dose response, cell-based, fluorescence polarization (AID 588439); assay type: functional
HEK293 [7] = test: HEK cell cytotoxicity by LDH release, dose response, cytotoxicity control for IDE activator project, fluorescence, HEK cells (AID 588440); assay type: functional, cell-based; details: Homo sapiens;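 also: cytotoxicity by LDH release measuring loss of membrane integrity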
HEK293 [8] = test: optical interference in Abeta FP readout, dose response, artefact control for IDE activator project, biochemical, fluorescence polarization (AID 588442); assay type: functional, cell-based; details: Homo sapiens
[9] = target: T3, Methionyl-tRNA synthetase, putative (Trypanosoma brucei brucei, UniProt Q38C91); assay type: functional, Trypanosoma brucei brucei strain 927/4 GUTat10.1
T3 sequence (Q38C91 whole entry): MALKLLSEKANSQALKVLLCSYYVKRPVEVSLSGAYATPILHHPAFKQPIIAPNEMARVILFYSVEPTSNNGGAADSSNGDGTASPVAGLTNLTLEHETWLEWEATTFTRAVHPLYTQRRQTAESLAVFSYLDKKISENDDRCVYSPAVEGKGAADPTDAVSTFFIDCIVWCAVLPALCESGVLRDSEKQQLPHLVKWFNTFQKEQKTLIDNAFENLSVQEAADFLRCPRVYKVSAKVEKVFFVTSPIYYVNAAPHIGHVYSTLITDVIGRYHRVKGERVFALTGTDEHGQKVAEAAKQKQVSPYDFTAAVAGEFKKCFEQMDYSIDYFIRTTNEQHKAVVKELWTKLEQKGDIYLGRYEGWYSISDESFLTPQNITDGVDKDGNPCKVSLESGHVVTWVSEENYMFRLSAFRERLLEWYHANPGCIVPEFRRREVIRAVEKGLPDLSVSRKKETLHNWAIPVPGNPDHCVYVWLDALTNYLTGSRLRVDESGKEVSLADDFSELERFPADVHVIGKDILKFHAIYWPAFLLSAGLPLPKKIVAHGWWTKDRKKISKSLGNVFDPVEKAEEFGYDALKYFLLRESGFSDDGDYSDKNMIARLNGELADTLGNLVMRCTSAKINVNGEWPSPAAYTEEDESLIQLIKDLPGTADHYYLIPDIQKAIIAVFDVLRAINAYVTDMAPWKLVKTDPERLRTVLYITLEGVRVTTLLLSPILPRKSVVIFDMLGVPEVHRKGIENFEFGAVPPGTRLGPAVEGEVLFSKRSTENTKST

[10] = Counterscreen for inhibitors of Trypanosoma brucei methionyl tRNA synthetase (MetRS): Luminescence-based cell-based high throughput dose response assay to identify compounds that are cytotoxic to Jurkat human T lymphocyte cells.; assay type: functional
[11] = target: T3, Methionyl-tRNA synthetase, putative; assay type: functional, Trypanosoma brucei brucei strain 927/4 GUTat10.1; remark: listed apart in the source
[12] = Luminescence Cell-Based Dose Retest to Confirm Inhibitors of Cancer Stem Cells. [Related pubchem assays (depositor defined):AID2717, AID2721]; assay type: functional; details: Homo sapiens
Bcl-2-related protein A1 = target: T4, Bcl-2-related protein A1 (Mus musculus, UniProt Q07440); assay type: functional;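 also: confirmatory dose–response counterscreen on Bfl-1, used to check hits from a UBC13 polyubiquitin inhibitor campaign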
T4 sequence (Q07440 whole entry): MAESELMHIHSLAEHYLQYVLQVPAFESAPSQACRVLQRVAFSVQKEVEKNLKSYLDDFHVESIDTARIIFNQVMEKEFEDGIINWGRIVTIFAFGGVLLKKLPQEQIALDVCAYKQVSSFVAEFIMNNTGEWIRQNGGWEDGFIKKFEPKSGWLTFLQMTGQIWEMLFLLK

[13] = target: T1, Ubiquitin-conjugating enzyme E2 N; assay type: functional; remark: listed apart in the source
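For AC50 in this document: cells exposed to compound for roughly 70 hours or longer before luminescence read.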

Row | SMILES | CC50 [1] | CC50 [2] | IC50 [3] | CC50 [4] | IC50 (cells) | EC50 (Insulin-degrading enzyme [5]) | EC50 (Insulin-degrading enzyme [6]) | IC50 (HEK293 [7]) | EC50 (HEK293 [8]) | IC50 [9] | IC50 [10] | IC50 [11] | AC50 [12] | IC50 (Bcl-2-related protein A1) | IC50 [13]
1 | Cc1c(CN2CCC(CO)(CCOc3ccccc3)CC2)[nH]c2ccc(Cl)cc12 | 17.9 µM (active) | 15.1 µM (active) | > 20 µM (inactive) | 16.8 µM (active) | 8.32 µM (active) | > 54.7 µM (inactive) | 15.9 µM (inactive) | 28.3 µM (inactive) | > 54.7 µM (inactive) | 38.8 µM (inactive) | 25.8 µM (inactive) | 64.4 µM (inactive) |  |  | 
2 | FC(F)(F)c1cc(CCN2CCNC[C@H]2Cc2cccc3ccccc23)cc(C(F)(F)F)c1 |  |  | 11.7 µM (active) |  |  | > 54.7 µM (inactive) | 11.1 µM (inactive) | 10.1 µM (inactive) | > 55.9 µM (inactive) |  |  |  | 3.37 µM (active) | > 20 µM (inactive) | 9.82 µM (active)
